PMC3156125, “Reconstitution of the Costunolide Biosynthetic Pathway in Yeast and Nicotiana benthamiana” (PLoS ONE, 2011)

What was measured:
Type in all cases: cell-based
[1] = target: T1, CiCOS (Cichorium intybus, UniProt G3GBK0); assay: yeast co-expression, GC-MS and UPLC-MRM-MS; settings: WAT11 yeast with TpGAS and CiGAO; substrate formed in situ; HEPES or MOPS pH 7.5, 30 °C; also N. benthamiana transient expression
T1 construct: gene CYP71BL3; full-length cDNA in pYEDP60, WAT11 yeast, co-expressed with TpGAS and CiGAO; also N. benthamiana
T1 sequence (G3GBK0 1-494): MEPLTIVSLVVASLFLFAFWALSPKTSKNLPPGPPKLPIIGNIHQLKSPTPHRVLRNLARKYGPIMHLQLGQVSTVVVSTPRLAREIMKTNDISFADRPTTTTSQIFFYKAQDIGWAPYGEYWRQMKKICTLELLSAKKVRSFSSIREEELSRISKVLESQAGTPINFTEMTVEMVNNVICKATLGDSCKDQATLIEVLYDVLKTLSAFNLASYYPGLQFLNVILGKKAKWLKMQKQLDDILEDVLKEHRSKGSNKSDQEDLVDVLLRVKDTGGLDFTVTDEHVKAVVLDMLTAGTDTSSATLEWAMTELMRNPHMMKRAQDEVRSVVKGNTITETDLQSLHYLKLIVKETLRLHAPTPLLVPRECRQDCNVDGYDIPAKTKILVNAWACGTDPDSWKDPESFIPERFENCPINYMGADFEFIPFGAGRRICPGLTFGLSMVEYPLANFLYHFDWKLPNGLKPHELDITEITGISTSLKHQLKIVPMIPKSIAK

[2] = target: T2, CiGAO (Cichorium intybus, UniProt D5JBW8); assay: yeast co-expression, GC-MS; settings: WAT11 yeast with TpGAS; detected as elematrien-12-oic acid after heat rearrangement
T2 construct: cDNA from chicory library, no terminal tags, pESC-Trp in WAT11 yeast with TpGAS
T2 sequence (D5JBW8 1-488): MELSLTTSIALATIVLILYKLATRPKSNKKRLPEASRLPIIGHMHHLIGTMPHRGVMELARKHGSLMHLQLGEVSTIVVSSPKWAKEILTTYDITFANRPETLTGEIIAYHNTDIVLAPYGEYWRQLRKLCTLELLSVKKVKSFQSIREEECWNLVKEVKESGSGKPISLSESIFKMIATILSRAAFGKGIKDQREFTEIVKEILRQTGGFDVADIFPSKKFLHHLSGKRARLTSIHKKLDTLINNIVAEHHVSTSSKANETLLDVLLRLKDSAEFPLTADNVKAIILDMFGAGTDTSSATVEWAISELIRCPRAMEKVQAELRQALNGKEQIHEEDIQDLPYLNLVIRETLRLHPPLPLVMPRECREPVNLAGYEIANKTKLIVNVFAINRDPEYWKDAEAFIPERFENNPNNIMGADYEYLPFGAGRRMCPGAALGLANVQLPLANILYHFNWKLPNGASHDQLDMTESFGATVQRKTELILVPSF

[3] = target: T2, CiGAO; assay: N. benthamiana co-infiltration, headspace GC-MS; settings: with mTpGAS; substrate formed in situ
[4] = target: T3, CiGAS-l (CiGAS-long) (Cichorium intybus, UniProt Q8LSC3); assay: yeast culture extract, GC-MS; settings: endogenous farnesyl diphosphate
T3 sequence (Q8LSC3 1-583): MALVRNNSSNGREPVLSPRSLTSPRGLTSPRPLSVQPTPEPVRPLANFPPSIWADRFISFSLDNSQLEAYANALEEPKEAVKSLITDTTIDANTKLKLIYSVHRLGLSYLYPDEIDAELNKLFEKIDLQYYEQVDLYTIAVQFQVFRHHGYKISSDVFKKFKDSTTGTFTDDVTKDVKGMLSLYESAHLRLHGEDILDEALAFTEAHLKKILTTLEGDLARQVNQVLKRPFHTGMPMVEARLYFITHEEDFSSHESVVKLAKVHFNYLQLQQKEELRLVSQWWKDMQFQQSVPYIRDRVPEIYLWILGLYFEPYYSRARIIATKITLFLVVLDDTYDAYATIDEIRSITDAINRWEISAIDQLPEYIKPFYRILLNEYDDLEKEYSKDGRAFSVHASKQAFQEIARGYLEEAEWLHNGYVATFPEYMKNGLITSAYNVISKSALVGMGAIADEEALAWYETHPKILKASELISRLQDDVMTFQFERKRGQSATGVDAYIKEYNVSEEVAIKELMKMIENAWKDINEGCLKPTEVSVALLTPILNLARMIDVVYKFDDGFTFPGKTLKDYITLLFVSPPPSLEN

[5] = target: T4, TpGAS (Tanacetum parthenium, UniProt F8UL80); assay: yeast culture extract, GC-MS; settings: endogenous farnesyl diphosphate; also N. benthamiana headspace
T4 construct: gene GAS
T4 sequence (F8UL80 1-559): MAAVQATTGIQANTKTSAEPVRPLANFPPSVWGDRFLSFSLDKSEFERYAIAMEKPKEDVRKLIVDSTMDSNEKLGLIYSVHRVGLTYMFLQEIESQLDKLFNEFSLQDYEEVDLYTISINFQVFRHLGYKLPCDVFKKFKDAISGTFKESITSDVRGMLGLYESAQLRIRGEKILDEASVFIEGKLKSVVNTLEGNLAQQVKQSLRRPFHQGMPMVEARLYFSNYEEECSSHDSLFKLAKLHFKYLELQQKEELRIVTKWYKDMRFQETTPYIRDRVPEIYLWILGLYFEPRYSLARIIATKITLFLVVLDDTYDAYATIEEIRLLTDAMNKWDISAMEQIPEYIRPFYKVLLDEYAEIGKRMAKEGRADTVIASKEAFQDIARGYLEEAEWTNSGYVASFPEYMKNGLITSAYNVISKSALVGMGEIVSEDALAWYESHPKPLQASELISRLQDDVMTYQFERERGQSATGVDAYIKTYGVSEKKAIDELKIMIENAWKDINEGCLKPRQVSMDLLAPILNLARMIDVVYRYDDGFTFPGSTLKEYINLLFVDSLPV

C=C1C(=O)O[C@@H]2/C=C(\C)CC/C=C(\C)CC[C@@H]12 [costunolide]
yeast co-expression, GC-MS and UPLC-MRM-MS [1]: encodes an enzymatic activity which was able to produce costunolide

C=C(C(=O)O)[C@H]1C/C=C(\C)CC/C=C(\C)CC1 [germacra-1(10),4,11(13)-trien-12-oic acid]
yeast co-expression, GC-MS [2]: enzymatic activity was confirmed in our yeast system by co-expression of TpGAS and CiGAO

C=C(C)[C@H]1C/C=C(\C)CC/C=C(\C)CC1 [germacrene A]
N. benthamiana co-infiltration, headspace GC-MS [3]: CiGAO can efficiently catalyse the conversion of the product of mTpGAS, germacrene A
yeast culture extract, GC-MS [4]: Germacrene A production in yeast. A yeast culture transformed by either CiGAS-long
yeast culture extract, GC-MS [5]: yeast culture expressing TpGAS had an approximately three fold higher activity
